Tests used:
Experiment in all cases: relative viability (nuclei count vs DMSO), 5 days (fraction); higher = more cells survive
[1] = compound: CS(=O)(=O)c1ccc(C(=O)Nc2ccc(Cl)c(-c3ccccn3)c2)c(Cl)c1 [Vismodegib] + CC(C)C[C@H](NC(=O)[C@H](Cc1ccccc1)NC(=O)c1cnccn1)B(O)O [Bortezomib] (partner 0.002 µM)
Summary of the method: (§1)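 Relative viability was taken as the ratio of nuclei in treated wells to nuclei in vehicle wells. Lung cancer cell lines in 1536-well plates received compounds by pin tool one day after seeding, either one drug alone or a fixed anchor-drug dose plus five library-drug doses (not always all listed) in √10 steps. Nuclei were counted on 4× images after 5 days of treatment, and values are medians of duplicate plates.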

[2] = compound: CS(=O)(=O)c1ccc(C(=O)Nc2ccc(Cl)c(-c3ccccn3)c2)c(Cl)c1 [Vismodegib] + COc1cc2c(Oc3ccc(NC(=O)C4(C(=O)Nc5ccc(F)cc5)CC4)cc3F)ccnc2cc1OCCCN1CCOCC1 [Foretinib] (partner 0.25 µM)
Summary of the method: as §1

[3] = compound: CS(=O)(=O)c1ccc(C(=O)Nc2ccc(Cl)c(-c3ccccn3)c2)c(Cl)c1 [Vismodegib] + CS(=O)(=O)CCNCc1ccc(-c2ccc3ncnc(Nc4ccc(OCc5cccc(F)c5)c(Cl)c4)c3c2)o1 [Lapatinib] (partner 2 µM)
Summary of the method: as §1

[4] = compound: CS(=O)(=O)c1ccc(-c2cnc(N)c(C(=O)Nc3ccccc3)n2)cc1 [VE-821] + CC(=O)c1c(C)c2cnc(Nc3ccc(N4CCNCC4)cn3)nc2n(C2CCCC2)c1=O [Palbociclib] (partner 0.5 µM)
Summary of the method: as §1

Row | Cell Line | relative viability ([1]; first compound 0.08 µM) | relative viability ([1]; first compound 0.253 µM) | relative viability ([1]; first compound 0.8 µM) | relative viability ([1]; first compound 2.53 µM) | relative viability ([1]; first compound 8 µM) | relative viability ([2]; first compound 0.08 µM) | relative viability ([2]; first compound 0.253 µM) | relative viability ([2]; first compound 0.8 µM) | relative viability ([2]; first compound 2.53 µM) | relative viability ([2]; first compound 8 µM) | relative viability ([3]; first compound 0.08 µM) | relative viability ([3]; first compound 0.253 µM) | relative viability ([3]; first compound 0.8 µM) | relative viability ([3]; first compound 2.53 µM) | relative viability ([3]; first compound 8 µM) | relative viability ([4]; first compound 0.08 µM) | relative viability ([4]; first compound 0.253 µM) | relative viability ([4]; first compound 0.8 µM) | relative viability ([4]; first compound 2.53 µM) | relative viability ([4]; first compound 8 µM)
1 | IA-LM | 0.892 | 0.825 | 0.867 | 0.754 | 0.795 | 1.2 | 1.15 | 1.28 | 1.04 | 1.2 | 0.807 | 0.639 | 0.802 | 0.691 | 0.911 | – | – | – | – | –
2 | LCLC-103H | 1.05 | 1.03 | 1.07 | 0.99 | 0.983 | 0.747 | 0.758 | 0.73 | 0.756 | 0.776 | – | – | – | – | – | 0.552 | 0.513 | 0.524 | 0.523 | 0.448
3 | LK-2 | – | – | – | – | – | 1.14 | 0.974 | 1.13 | 1.34 | 1.38 | 0.916 | 0.941 | 0.893 | 0.896 | 0.72 | 0.762 | 0.737 | 0.781 | 0.563 | 0.639
4 | NCI-H358 | – | – | – | – | – | 0.677 | 0.629 | 0.797 | 0.68 | 0.782 | 0.471 | 0.505 | 0.422 | 0.518 | 0.461 | 0.13 | 0.14 | 0.134 | 0.135 | 0.133
5 | NCI-H441 | 0.535 | 0.588 | 0.522 | 0.319 | 0.523 | 1.24 | 1.04 | 0.931 | 0.774 | 1.01 | – | – | – | – | – | 0.251 | 0.167 | 0.253 | 0.246 | 0.228
6 | NCI-H522 | – | – | – | – | – | – | – | – | – | – | – | – | – | – | – | 1.06 | 1.15 | 0.754 | 0.932 | 0.999
7 | NCI-H596 | 0.923 | 1.09 | 0.976 | 1.18 | 1.05 | 0.826 | 0.83 | 0.463 | 0.964 | 1 | 0.983 | 1.07 | 0.941 | 1.1 | 1.09 | – | – | – | – | –
8 | NCI-H1299 | 1.01 | 0.985 | 1.04 | 1.01 | 0.973 | 1.06 | 1.11 | 1.13 | 1.07 | 1.09 | 0.952 | 0.893 | 0.992 | 0.968 | 1 | – | – | – | – | –
9 | NCI-H1395 | – | – | – | – | – | 0.918 | 0.873 | 0.999 | 0.961 | 1.03 | 1.06 | 0.899 | 0.855 | 0.927 | 1.18 | 0.725 | 0.658 | 0.549 | 0.586 | 0.516
10 | NCI-H1563 | 0.845 | 0.881 | 0.904 | 0.922 | 0.906 | 0.895 | 1.02 | 0.922 | 0.936 | 1.02 | 0.849 | 0.878 | 0.901 | 0.892 | 0.966 | – | – | – | – | –
11 | NCI-H1623 | – | – | – | – | – | 0.805 | 0.927 | 0.914 | 0.822 | 0.864 | – | – | – | – | – | – | – | – | – | –
12 | NCI-H1648 | – | – | – | – | – | – | – | – | – | – | – | – | – | – | – | 0.269 | – | 0.252 | 0.265 | 0.349
13 | NCI-H1703 | 0.368 | 0.257 | 0.372 | 0.342 | 0.401 | 0.383 | 0.344 | 0.379 | 0.336 | 0.316 | 1.12 | 0.822 | 1.21 | 1.16 | 1.52 | – | – | – | – | –
14 | NCI-H1792 | 0.953 | 0.974 | 0.929 | 0.946 | 0.93 | – | – | – | – | – | 0.851 | 0.97 | 0.872 | 0.79 | 0.878 | 0.725 | 0.698 | 0.664 | 0.762 | 0.66
15 | NCI-H1793 | – | – | – | – | – | – | 0.524 | 0.616 | 0.848 | 0.609 | – | 0.667 | 0.658 | 0.671 | 0.676 | 0.361 | 0.32 | – | 0.447 | 0.333
16 | NCI-H1944 | – | – | – | – | – | 0.851 | 0.794 | 0.897 | 0.878 | 0.942 | 0.925 | 0.746 | 0.801 | 0.79 | 0.972 | 0.408 | 0.325 | 0.256 | 0.354 | 0.236
17 | NCI-H2170 | – | – | – | – | – | 0.996 | 1 | 1.04 | 1.02 | 1.08 | 0.258 | 0.271 | 0.26 | 0.307 | 0.28 | 0.432 | 0.414 | 0.381 | 0.45 | 0.32
18 | NCI-H2342 | – | – | – | – | – | 0.984 | 1.04 | 1.06 | 0.949 | 0.947 | – | – | – | – | – | 0.503 | 0.557 | 0.528 | 0.521 | 0.494
19 | SK-MES-1 | – | – | – | – | – | 0.865 | 0.91 | 0.961 | 0.889 | 0.918 | 0.498 | 0.475 | 0.404 | 0.484 | 0.499 | 0.339 | 0.345 | 0.323 | 0.296 | 0.287
20 | SW 900 | – | – | – | – | – | 0.743 | 0.622 | 0.761 | 0.655 | 0.857 | – | – | – | – | – | 0.549 | 0.52 | 0.46 | 0.542 | 0.36
